Results on 22 compounds are retold here after patent US12404279B2, “Deubiquitinase inhibitors and methods of use thereof” (Molecure S.A., priority 2021, dated 2025).

Structures can show the parent of a compound that is named as a salt.

full-length USP7, sequence (Q93009 whole entry): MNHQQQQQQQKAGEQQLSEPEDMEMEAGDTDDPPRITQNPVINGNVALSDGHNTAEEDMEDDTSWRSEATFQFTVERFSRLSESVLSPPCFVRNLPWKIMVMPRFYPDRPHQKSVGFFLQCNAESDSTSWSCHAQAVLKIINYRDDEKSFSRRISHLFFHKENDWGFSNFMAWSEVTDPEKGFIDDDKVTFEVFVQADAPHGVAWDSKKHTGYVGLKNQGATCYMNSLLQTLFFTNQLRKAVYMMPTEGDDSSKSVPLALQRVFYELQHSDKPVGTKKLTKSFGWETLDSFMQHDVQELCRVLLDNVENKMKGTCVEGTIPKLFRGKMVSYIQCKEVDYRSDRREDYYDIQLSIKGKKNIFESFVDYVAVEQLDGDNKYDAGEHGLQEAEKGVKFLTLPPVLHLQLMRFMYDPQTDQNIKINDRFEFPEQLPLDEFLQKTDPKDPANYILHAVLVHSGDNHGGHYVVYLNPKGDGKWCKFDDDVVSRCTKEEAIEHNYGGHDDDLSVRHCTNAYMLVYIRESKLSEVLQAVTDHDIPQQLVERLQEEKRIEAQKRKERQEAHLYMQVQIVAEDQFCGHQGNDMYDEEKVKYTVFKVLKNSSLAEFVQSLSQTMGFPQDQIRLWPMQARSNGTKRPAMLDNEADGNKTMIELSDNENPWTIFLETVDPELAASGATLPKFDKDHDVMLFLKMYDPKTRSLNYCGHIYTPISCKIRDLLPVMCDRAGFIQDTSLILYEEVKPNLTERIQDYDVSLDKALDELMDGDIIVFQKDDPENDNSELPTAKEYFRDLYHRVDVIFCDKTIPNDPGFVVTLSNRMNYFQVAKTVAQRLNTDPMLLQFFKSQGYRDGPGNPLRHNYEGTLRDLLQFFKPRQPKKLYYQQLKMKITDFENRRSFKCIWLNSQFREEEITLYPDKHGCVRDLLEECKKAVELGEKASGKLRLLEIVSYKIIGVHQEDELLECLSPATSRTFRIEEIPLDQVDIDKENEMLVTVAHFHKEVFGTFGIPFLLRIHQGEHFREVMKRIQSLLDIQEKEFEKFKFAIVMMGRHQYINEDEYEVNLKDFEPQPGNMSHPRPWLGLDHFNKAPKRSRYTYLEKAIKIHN

The target of one assay is full-length USP7 (Homo sapiens (Human), UniProt Q93009). The assay is described as follows: Enzymatic assay to determine IC50 of USP7 inhibitors (Ubiquitin-Rhodamine 110 cleavage). Conditions: 0.5 nM USP7, 0.5 μM Ubiquitin-Rhodamine 110, 45 min at 37° C. Type of assay: biochemical. How it is done:
For the inhibitors disclosed herein, their potency was measured using the following method.
A 45 μl reaction volume containing full-length USP7 (0.5 nM) in 50 mM HEPES pH 7.5, 150 mM NaCl, 1 mM DTT, 1 mg/ml BSA and 0.05% Tween20 was assembled in wells of 96 well half area black flat bottom plates. Test compounds were first dissolved to 25 mM stocks in DMSO and subsequently introduced to enzyme 15 min after USP7 incubation with DTT at room temperature. The enzymatic reaction was started by adding 0.5 μM Ubiquitin-Rhodamine 110 (final concentration) and allowed to proceed for 45 min at 37° C., 250 RPM shaking before Rhodamine fluorescence (485 nm excitation/520 nm emission) was measured using Tecan Spark M10 plate reader.
Turning to `Cc1nc(C#N)cc(-c2ccnc3cc(CN4C(=O)C5C(C4=O)C5(C)C)sc23)c1C(=O)N1CC[C@H](N)C1` (stereo partly drawn) [Example 15, 5-((S)-3-aminopyrrolidine-1-carbonyl)-4-(2-((6,6-dimethyl-2,4-dioxo-3-azabicyclo[3.1.0]hexan-3-yl)methyl)thieno[3,2-b]pyridin-7-yl)-6-methylpicolinonitrile 2,2,2-trifluoroacetate], the half-inhibitory concentration (IC50) (usually the concentration needed to halve the response being measured) is less than 500 nM. Still for that read-out and setting: with `Cc1nc(C#N)cc(-c2ccnc3cc(CN4C(=O)C5C(C4=O)C5(C)C)sc23)c1NC(=O)C1CNC1` (stereo not shown) [Example 30, N-(6-cyano-4-(2-((6,6-dimethyl-2,4-dioxo-3-azabicyclo[3.1.0]hexan-3-yl)methyl)thieno[3,2-b]pyridin-7-yl)-2-methylpyridin-3-yl)azetidine-3-carboxamide 2,2,2-trifluoroacetate] the figure was less than 500 nM; with `Cc1cc(Cl)nc(-c2ccnc3cc(CN4C(=O)C5C(C4=O)C5(C)C)sc23)c1O[C@H]1CCCNC1` (single isomer, unassigned) [Example 4, hydrochloride], less than 500 nM; with `COCC(=O)Nc1c(-c2ccnc3cc(CN4C(=O)C5C(C4=O)C5(C)C)sc23)cc(C(F)(F)F)nc1C` (stereo not shown) [Example 61, N-(4-(2-((6,6-dimethyl-2,4-dioxo-3-azabicyclo[3.1.0]hexan-3-yl)methyl)thieno[3,2-b]pyridin-7-yl)-2-methyl-6-(trifluoromethyl)pyridin-3-yl)-2-methoxyacetamide 2,2,2-trifluoroacetate], more than 10000 nM. The same measure, in the same setting: with `Cc1cc(C#N)nc(-c2ccnc3cc(CN4C(=O)C5C(C4=O)C5(C)C)sc23)c1C(=O)N1CC[C@H](N(C)C)C1` (stereo partly drawn) [Example 44, 6-(2-((6,6-dimethyl-2,4-dioxo-3-azabicyclo[3.1.0]hexan-3-yl)methyl)thieno[3,2-b]pyridin-7-yl)-5-((S)-3-(dimethylamino)pyrrolidine-1-carbonyl)-4-methylpicolinonitrile hydrochloride] the figure was 1000 to 10000 nM; with `Cc1cc(C(F)(F)F)nc(-c2ccnc3cc(CN4C(=O)C5C(C4=O)C5(C)C)sc23)c1C(=O)N1CCC(C)(N)C1` (racemic) [Example 137, 3-((7-(3-(3-amino-3-methylpyrrolidine-1-carbonyl)-4-methyl-6-(trifluoromethyl)pyridin-2-yl)thieno[3,2-b]pyridin-2-yl)methyl)-6,6-dimethyl-3-azabicyclo[3.1.0]hexane-2,4-dione trihydrochloride], 500 to 1000 nM; with `Cc1cc(Cl)nc(-c2ccnc3cc(CN4C(=O)C5C(C4=O)C5(C)C)sc23)c1OC1CCCNC1` (racemic) [Example 3, 3-((7-(6-chloro-4-methyl-3-(piperidin-3-yloxy)pyridin-2-yl)thieno[3,2-b]pyridin-2-yl)methyl)-6,6-dimethyl-3-azabicyclo[3.1.0]hexane-2,4-dione hydrochloride], less than 500 nM.

In turn, `Cc1nc(C(F)(F)F)cc(-c2ccnc3cc(CN4C(=O)C5C(C4=O)C5(C)C)sc23)c1CC1CCNC1` (stereo not shown) [Example 89, 6,6-dimethyl-3-((7-(2-methyl-3-(pyrrolidin-3-ylmethyl)-6-(trifluoromethyl)pyridin-4-yl)thieno[3,2-b]pyridin-2-yl)methyl)-3-azabicyclo[3.1.0]hexane-2,4-dione hydrochloride] registered an IC50 of less than 500 nM. Still for that read-out and setting: in the case of `CCN1CCN(C(=O)c2c(C)cc(C(F)(F)F)nc2-c2ccnc3cc(CN4C(=O)C5C(C4=O)C5(C)C)sc23)CC1` (stereo not shown) [Example 143, 3-((7-(3-(4-ethylpiperazine-1-carbonyl)-4-methyl-6-(trifluoromethyl)pyridin-2-yl)thieno[3,2-b]pyridin-2-yl)methyl)-6,6-dimethyl-3-azabicyclo[3.1.0]hexane-2,4-dione trihydrochloride] it was less than 500 nM; in that of `Cc1cc(C(F)(F)F)nc(-c2ccnc3cc(CN4C(=O)C5C(C4=O)C5(C)C)sc23)c1C(=O)N1CCC2CNCC21` (racemic) [Example 72, 6,6-dimethyl-3-((7-(4-methyl-3-(octahydropyrrolo[3,4-b]pyrrole-1-carbonyl)-6-(trifluoromethyl)pyridin-2-yl)thieno[3,2-b]pyridin-2-yl)methyl)-3-azabicyclo[3.1.0]hexane-2,4-dione dihydrochloride], less than 500 nM. Still for that read-out and setting: with `Cc1cc(C(F)(F)F)nc(-c2ccnc3cc(CN4C(=O)C5C(C4=O)C5(C)C)sc23)c1C(=O)N1CC[C@H](NC(C)C)C1` (stereo partly drawn) [Example 74, 3-((7-(3-((S)-3-(isopropylamino)pyrrolidine-1-carbonyl)-4-methyl-6-(trifluoromethyl)pyridin-2-yl)thieno[3,2-b]pyridin-2-yl)methyl)-6,6-dimethyl-3-azabicyclo[3.1.0]hexane-2,4-dione dihydrochloride] the figure was less than 500 nM; with `Cc1cc(C(F)(F)F)nc(-c2ccnc3cc(CN4C(=O)C5C(C4=O)C5(C)C)sc23)c1C(=O)N1C[C@@H]2CCN[C@@H]2C1` (stereo partly drawn) [Example 163, 6,6-dimethyl-3-((7-(4-methyl-3-((3aS,6aS)-octahydropyrrolo[3,4-b]pyrrole-5-carbonyl)-6-(trifluoromethyl)pyridin-2-yl)thieno[3,2-b]pyridin-2-yl)methyl)-3-azabicyclo[3.1.0]hexane-2,4-dione hydrochloride], 500 to 1000 nM; with `Cc1cc(Cl)cc(-c2ccnc3cc(CN4C(=O)C5C(C4=O)C5(C)C)sc23)c1NC(=O)C1CCNCC1` (stereo not shown) [Example 118, N-(4-chloro-2-(2-((6,6-dimethyl-2,4-dioxo-3-azabicyclo[3.1.0]hexan-3-yl)methyl)thieno[3,2-b]pyridin-7-yl)-6-methylphenyl)piperidine-4-carboxamide 2,2,2-trifluoroacetate], less than 500 nM. Same read-out and setting: in the case of `Cc1cc(C(F)(F)F)nc(-c2ccnc3cc(CN4C(=O)C5C(C4=O)C5(C)C)sc23)c1C(=O)N1CC[C@H](C(F)F)C1` (stereo partly drawn) [Example 104, 3-((7-(3-((S)-3-(difluoromethyl)pyrrolidine-1-carbonyl)-4-methyl-6-(trifluoromethyl)pyridin-2-yl)thieno[3,2-b]pyridin-2-yl)methyl)-6,6-dimethyl-3-azabicyclo[3.1.0]hexane-2,4-dione hydrochloride] it was less than 500 nM.

For the compound `Cc1nc(C#N)cc(-c2ccnc3cc(CN4C(=O)C5C(C4=O)C5(C)C)sc23)c1C(=O)N1CCNC[C@@H]1C` (stereo partly drawn) [Example 5, 4-(2-((6,6-dimethyl-2,4-dioxo-3-azabicyclo[3.1.0]hexan-3-yl)methyl)thieno[3,2-b]pyridin-7-yl)-6-methyl-5-((S)-2-methylpiperazine-1-carbonyl)picolinonitrile 2,2,2-trifluoroacetate], the IC50 is less than 500 nM. `Cc1nc(Cl)cc(-c2ccnc3cc(CN4C(=O)C5C(C4=O)C5(C)C)sc23)c1NC(=O)C1CNC1` (stereo not shown) [Example 29, N-(6-chloro-4-(2-((6,6-dimethyl-2,4-dioxo-3-azabicyclo[3.1.0]hexan-3-yl)methyl)thieno[3,2-b]pyridin-7-yl)-2-methylpyridin-3-yl)azetidine-3-carboxamide 2,2,2-trifluoroacetate]: the IC50 is less than 500 nM.

The same assay, now with this note: at 1 μM of the test compound; given where IC50 not determined yet; read-out: percent value of inhibition of USP7 activity.
On to `Cc1cc(C(F)(F)F)nc(-c2ccnc3cc(CN4C(=O)C5C(C4=O)C5(C)C)sc23)c1CN1CCN(C)CC1=O` (stereo not shown) [Example 41, 6,6-dimethyl-3-((7-(4-methyl-3-((4-methyl-2-oxopiperazin-1-yl)methyl)-6-(trifluoromethyl)pyridin-2-yl)thieno[3,2-b]pyridin-2-yl)methyl)-3-azabicyclo[3.1.0]hexane-2,4-dione dihydrochloride], for which the inhibition – broadly, the relative decrease from the control value, in per cent – at 1 µM is less than 20%. The same measure, in the same setting: with `Cc1ccnc(-c2ccnc3cc(CN4C(=O)C5C(C4=O)C5(C)C)sc23)c1CN1CCNCC1` (stereo not shown) [Example 46, 6,6-dimethyl-3-((7-(4-methyl-3-(piperazin-1-ylmethyl)pyridin-2-yl)thieno[3,2-b]pyridin-2-yl)methyl)-3-azabicyclo[3.1.0]hexane-2,4-dione hydrochloride] the figure was less than 20%; with `Cc1ccnc(-c2ccnc3cc(CN4C(=O)C5C(C4=O)C5(C)C)sc23)c1C(=O)N1CCNCC1` (stereo not shown) [Example 45, 6,6-dimethyl-3-((7-(4-methyl-3-(piperazine-1-carbonyl)pyridin-2-yl)thieno[3,2-b]pyridin-2-yl)methyl)-3-azabicyclo[3.1.0]hexane-2,4-dione hydrochloride], less than 20%. Still for that read-out and setting: in the case of `Cc1cc(C(F)(F)F)nc(-c2ccnc3cc(CN4C(=O)C5C(C4=O)C5(C)C)sc23)c1C(=O)NC1CCNCC1` (stereo not shown) [Example 111, 2-(2-((6,6-dimethyl-2,4-dioxo-3-azabicyclo[3.1.0]hexan-3-yl)methyl)thieno[3,2-b]pyridin-7-yl)-4-methyl-N-(piperidin-4-yl)-6-(trifluoromethyl)nicotinamide dihydrochloride] it was less than 20%; in that of `CN[C@H]1CCN(C(=O)c2c(C)cc(C(F)(F)F)nc2-c2ccnc3c(F)c(CN4C(=O)C5C(C4=O)C5(C)C)sc23)C1` (stereo partly drawn) [Example 174, 3-((3-fluoro-7-(4-methyl-3-((S)-3-(methylamino)pyrrolidine-1-carbonyl)-6-(trifluoromethyl)pyridin-2-yl)thieno[3,2-b]pyridin-2-yl)methyl)-6,6-dimethyl-3-azabicyclo[3.1.0]hexane-2,4-dione hydrochloride], 50 to 70%. For `CC1(C)C2C(=O)N(Cc3cc4nccc(-c5cc(Cl)cnc5O[C@H]5CCNC5)c4s3)C(=O)C21` (stereo partly drawn) [Example 164, 3-((7-(5-chloro-2-(((S)-pyrrolidin-3-yl)oxy)pyridin-3-yl)thieno[3,2-b]pyridin-2-yl)methyl)-6,6-dimethyl-3-azabicyclo[3.1.0]hexane-2,4-dione dihydrochloride], the inhibition at 1 µM is less than 20%.
